In patent US9669003B2, “Use of flavone and flavanone derivatives in preparation of sedative and hypnotic drugs” (priority 2012, dated 2017):
Marks after values point to notes of the source that are not given here.

What was measured:
Format in all cases: in vivo
Kunming mice [1] = experiment: Influence on autonomic activity of normal mice (ZIL-2 mice autonomic activity meter, counts within 10 min); details: intragastric, x ± s, n = 10; for Times of activities in 1 h after drug administration/10 min: 1 h after administration; for Times of activities in 2 h after drug administration/10 min: 2 h after administration; for Times of activities in 24 h after drug administration/10 min: 24 h after administration
How it was run: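 Kunming mice (10 per group, half each sex) were dosed at 25, 50 or 100 mg/kg in 0.5% CMC-Na. Spontaneous activity counts over 10 min were recorded at 1 h, 2 h and 24 h post-dose. Groups were compared by ANOVA with Dunnett's test after Levene's check.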

Kunming mice [2] = experiment: Influence on hypnosis effect with pentobarbital sodium doses at the threshold (50 mg/kg i.p.); details: pentobarbital sodium 50 mg/kg i.p. 60 min later, x ± s, n = 10
How it was run: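 Kunming mice (10/group, half each sex) received compound in 0.5% CMC-Na intragastrically at 25, 50 or 100 mg/kg; 60 min later given 0.3% sodium pentobarbital 50 mg/kg i.p. Sleep latency and duration recorded by loss of righting reflex over 1 min; ANOVA and χ2 for sleep incidence.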

Kunming mice [3] = experiment: Influence on hypnosis effect with pentobarbital sodium doses below the threshold (25 mg/kg i.p.); details: pentobarbital sodium 25 mg/kg i.p. 60 min later, sleep observed in 30 min, n = 10
How it was run: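 Kunming mice (10 per group, half female) given single oral doses of 25, 50 or 100 mg/kg in 0.5% CMC-Na; 60 min later pentobarbital sodium 25 mg/kg i.p. Sleep (righting reflex lost >1 min) scored within 30 min as percentage asleep, χ2 test.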

[4] = 25 mg/kg intragastric single dose
[5] = 50 mg/kg intragastric single dose
[6] = 100 mg/kg intragastric single dose
[7] = test drug 25 mg/kg intragastric single dose
[8] = test drug 50 mg/kg intragastric single dose
[9] = test drug 100 mg/kg intragastric single dose

| Compound | Times of activities in 1 h after drug administration/10 min (Kunming mice [1]; 25 mg/kg) | Times of activities in 2 h after drug administration/10 min (Kunming mice [1]; 25 mg/kg) | Times of activities in 24 h after drug administration/10 min (Kunming mice [1]; 25 mg/kg) | Times of activities in 1 h after drug administration/10 min (Kunming mice [1]; 50 mg/kg) | Times of activities in 2 h after drug administration/10 min (Kunming mice [1]; 50 mg/kg) | Times of activities in 24 h after drug administration/10 min (Kunming mice [1]; 50 mg/kg) | Times of activities in 1 h after drug administration/10 min (Kunming mice [1]; 100 mg/kg) | Times of activities in 2 h after drug administration/10 min (Kunming mice [1]; 100 mg/kg) | Times of activities in 24 h after drug administration/10 min (Kunming mice [1]; 100 mg/kg) | duration of sleep (Kunming mice [2]; [4]) [min] | time to sleep (Kunming mice [2]; [4]) [min] | duration of sleep (Kunming mice [2]; [5]) [min] | time to sleep (Kunming mice [2]; [5]) [min] | duration of sleep (Kunming mice [2]; [6]) [min] | time to sleep (Kunming mice [2]; [6]) [min] | Number of sleeping animals (Kunming mice [3]; [7]) | rate of sleeping (%) (Kunming mice [3]; [7]) | Number of sleeping animals (Kunming mice [3]; [8]) | rate of sleeping (%) (Kunming mice [3]; [8]) | Number of sleeping animals (Kunming mice [3]; [9]) | further results |
| --- | --- | --- | --- | --- | --- | --- | --- | --- | --- | --- | --- | --- | --- | --- | --- | --- | --- | --- | --- | --- | --- |
| C=Cc1cc(C2CC(=O)c3cc(C(N)=O)c(C4CCSC4)c(Oc4ccccc4)c3O2)ccc1N (stereo not drawn) [Example 57] | 299.9 ± 58.2 /10 min | 288.1 ± 73.0 /10 min | 311.7 ± 81.2 /10 min | 245.4 ± 45.9 /10 min | 240.8 ± 63.24 /10 min | 315.9 ± 85.6 /10 min | 206.6 ± 44.2 /10 min | 199.6 ± 49.9 /10 min | 325.7 ± 82.6 /10 min | 41.14 ± 23.51 | 4.61 ± 1.53 | 48.87 ± 19.80 | 4.13 ± 1.71 | 54.44 ± 21.81 | 3.43 ± 1.20 | 4 | 40* % | 6 | 60** % | 7 | rate of sleeping (%) (Kunming mice [3]; [9]): 70** % |
| CC=Cc1cc(I)cc2c1OC(c1cccc(C(=O)O)c1)CC2=O (stereo not drawn) [Example 60] | 243.8 ± 73.8 /10 min | 238.9 ± 78.3 /10 min | 340.4 ± 76.8 /10 min | 143.3 ± 64.7 /10 min | 131.8 ± 62.3 /10 min | 327.6 ± 75.3 /10 min | 116.9 ± 33.8 /10 min | 109.9 ± 39.2 /10 min | 293.4 ± 84.9 /10 min | 46.64 ± 22.53 | 4.13 ± 1.59 | 58.37 ± 18.85 | 3.62 ± 1.74 | 73.03 ± 19.21 | 2.32 ± 1.17 | 5 | 50** % | 6 | 60** % | 9 | rate of sleeping (%) (Kunming mice [3]; [9]): 90*** % |
| CCCc1ccc(C2CC(=O)c3c(O)cc([N+](=O)[O-])cc3O2)cc1OC (stereo not drawn) [Example 61] | 317.3 ± 50.1 /10 min | 289.4 ± 40.2 /10 min | 301.9 ± 77.5 /10 min | 295.1 ± 41.9 /10 min | 250.7 ± 42.8 /10 min | 300.2 ± 91.3 /10 min | 287.1 ± 45.9 /10 min | 221.5 ± 45.8 /10 min | 317.9 ± 80.3 /10 min | 38.44 ± 15.12 | 4.42 ± 1.43 | 58.53 ± 27.42 | 3.92 ± 1.31 | 58.47 ± 24.40 | 3.79 ± 1.44 | 5 | 50** % | 6 | 60** % | 8 | rate of sleeping (%) (Kunming mice [3]; [9]): 80*** % |
| COc1ccc(C2CC(=O)c3c(O)cccc3O2)cc1O (stereo not drawn) [Example 62] | 279.2 ± 45.4 /10 min | 264.9 ± 44.7 /10 min | 309.0 ± 81.9 /10 min | 237.4 ± 41.9 /10 min | 242.6 ± 49.2 /10 min | 297.2 ± 69.5 /10 min | 125.6 ± 32.8 /10 min | 170.3 ± 35.2 /10 min | 279.4 ± 86.3 /10 min | 34.29 ± 22.83 | 4.87 ± 1.96 | 57.24 ± 17.30 | 4.21 ± 1.72 | 65.03 ± 32.12 | 3.78 ± 1.90 | 3 | 30% | 4 | 40* % | 6 | rate of sleeping (%) (Kunming mice [3]; [9]): 60** % |
| Cc1cc(C2CC(=O)c3c(cccc3[N+](=O)[O-])O2)ccc1Oc1ccccc1 (stereo not drawn) [Example 63] | 250.6 ± 35.5 /10 min | 239.3 ± 34.6 /10 min | 269.5 ± 79.5 /10 min | 168.5 ± 53.0 /10 min | 151.3 ± 57.0 /10 min | 283.8 ± 79.3 /10 min | 124.5 ± 42.0 /10 min | 117.3 ± 54.8 /10 min | 320.3 ± 76.0 /10 min | 47.87 ± 14.62 | 3.43 ± 1.46 | 62.64 ± 22.64 | 3.09 ± 1.41 | 87.42 ± 18.53 | 2.33 ± 1.27 | 6 | 60** % | 8 | 80*** % | 9 | rate of sleeping (%) (Kunming mice [3]; [9]): 90*** % |
